Reference: US9550742B2, “11-OXO-10,11-dihydrodibenzo[B,F][1,4]thiazepine S-oxide derivatives and their use as dopamine D2 receptor antagonists” (The United States of America, as Represented by the …, priority 2013, dated 2017)
Where two headings read alike, the source gives them in different places.

Columns and labels:
Beta1 = Beta1 (Homo sapiens, UniProt P08588); assay: Affinity profile panel: Beta1; conditions: inhibition of binding
D2 DAR = molecular target: T1, D2 DAR (Homo sapiens, UniProt P14416); assay: D2 Ca^2+ screen assay (calcium accumulation, HEK293 T-REx with Gqi5); format: cell-based
T1 construct: expressed in transfected cells; host or cells: HEK293 T-REx, Tet-inducible, with chimeric G-protein Gqi5
T1 sequence (P14416 whole entry): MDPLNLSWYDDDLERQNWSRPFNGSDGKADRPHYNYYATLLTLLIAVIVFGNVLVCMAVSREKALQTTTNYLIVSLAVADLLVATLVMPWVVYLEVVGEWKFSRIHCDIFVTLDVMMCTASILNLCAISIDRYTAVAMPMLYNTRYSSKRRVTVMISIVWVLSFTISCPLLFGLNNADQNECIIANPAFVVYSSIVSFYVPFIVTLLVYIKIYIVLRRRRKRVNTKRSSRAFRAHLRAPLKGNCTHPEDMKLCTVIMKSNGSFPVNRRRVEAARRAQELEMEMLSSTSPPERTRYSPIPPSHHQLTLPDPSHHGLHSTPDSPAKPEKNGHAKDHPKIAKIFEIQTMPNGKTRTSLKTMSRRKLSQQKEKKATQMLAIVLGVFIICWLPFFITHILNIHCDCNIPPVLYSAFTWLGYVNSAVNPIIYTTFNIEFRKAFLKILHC
Procedure: The resting concentration of calcium ions (Ca^2+) in the cells' cytoplasm is normally maintained in the range of 10-100 nM. To maintain this low concentration, Ca^2+ is actively pumped from the cytosol to the extracellular space and into the endoplasmic reticulum (ER), and sometimes into the mitochondria. Signaling occurs when the cell is stimulated to release Ca^2+ from intracellular stores. The most common signaling pathway that increases cytoplasmic calcium concentration is the phospholipase C (PLC) pathway. […] IP3 diffuses to the ER, binds to its receptor (IP3 receptor), which is a Ca^2+ channel and, thus, releases Ca^2+ from the ER to the cytosol. To measure this cytosolic Ca^2+ accumulation, we used the Screen Quest™ Fluo-8 Calcium Assay Kit (AAT Bioquest, Sunnyvale, Calif.). Acetoxymethyl (AM) esters bound to Fluo-8™ dye are non-polar molecules that easily cross live cell membranes transporting the dye inside the cell, and are then rapidly hydrolyzed by cellular esterases inside live cells. As Fluo-8™ is freed from AM esters, it binds to Ca^2+ and emits a fluorescent signal at 514 nm that escalates with increasing cytosolic Ca^2±. To measure this calcium flux signal, we used the Functional Drug Screening System (FDSS) (Hamamatsu, Japan), a high throughput screening device that allows optical detection of signal transmissions within living cells in a time-resolving fashion. […] Quest Fluo-8™ calcium reagent was freshly prepared prior to adding to the cells (lyophilized Fluo-8™ dye provided with the kit was re-suspended in 200 μL DMSO as a 500× stock and stored at −20° C.). 2 μL/well of Quest Fluo-8™ calcium dye diluted in HBSS +10 mM HEPES buffer (for every 10 mL buffer, 1 mL of 10× quencher provided in the kit and 20 μL of 500×DMSO stock dye were added) was added to cells with a Multi-Drop Combi (ThermoScientific) and incubated for 45-90 min in the dark at ambient temperature. Then, the plates were introduced into the FDSS where they were pinned with 23 nL of test compound or dopamine controls and were read by FDSS in non-stimulated mode for 180 sec for detection of agonists. […]

Alpha1A = Alpha1A (Homo sapiens, UniProt P35348); assay: Affinity profile panel: Alpha1A; conditions: inhibition of binding
MOR = MOR (Homo sapiens, UniProt P35372); assay: Affinity profile panel: MOR; conditions: inhibition of binding
MOR, sequence (P35372 whole entry): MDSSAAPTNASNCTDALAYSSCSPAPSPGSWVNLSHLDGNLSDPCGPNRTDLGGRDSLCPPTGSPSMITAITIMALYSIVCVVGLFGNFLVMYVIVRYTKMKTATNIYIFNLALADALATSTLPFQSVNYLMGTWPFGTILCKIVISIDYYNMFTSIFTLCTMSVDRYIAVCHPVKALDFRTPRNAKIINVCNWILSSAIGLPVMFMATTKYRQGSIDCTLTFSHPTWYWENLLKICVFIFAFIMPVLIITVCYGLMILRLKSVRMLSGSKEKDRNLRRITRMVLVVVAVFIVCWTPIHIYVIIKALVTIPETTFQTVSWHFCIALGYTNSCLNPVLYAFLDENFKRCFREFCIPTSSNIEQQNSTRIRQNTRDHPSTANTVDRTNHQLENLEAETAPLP

D4 [1] = molecular target: T2, D4 (Homo sapiens, UniProt P21917); assay: Affinity profile panel: D4; conditions: inhibition of binding
T2 sequence (P21917 whole entry): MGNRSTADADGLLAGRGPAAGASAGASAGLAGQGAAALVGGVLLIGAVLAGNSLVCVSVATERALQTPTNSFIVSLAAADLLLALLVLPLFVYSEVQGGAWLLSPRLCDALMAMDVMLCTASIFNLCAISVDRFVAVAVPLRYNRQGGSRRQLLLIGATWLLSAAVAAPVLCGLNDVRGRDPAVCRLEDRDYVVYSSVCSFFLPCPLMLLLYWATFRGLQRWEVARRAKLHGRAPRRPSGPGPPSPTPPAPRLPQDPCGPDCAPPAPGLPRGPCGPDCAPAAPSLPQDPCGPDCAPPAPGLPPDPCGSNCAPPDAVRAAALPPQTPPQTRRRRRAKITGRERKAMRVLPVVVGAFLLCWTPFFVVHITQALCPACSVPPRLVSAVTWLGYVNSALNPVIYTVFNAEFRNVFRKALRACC

M1 = M1 (Homo sapiens, UniProt P11229); assay: Affinity profile panel: M1; conditions: inhibition of binding
KOR = KOR (Homo sapiens, UniProt P41145); assay: Affinity profile panel: KOR; conditions: inhibition of binding
KOR, sequence (P41145 whole entry): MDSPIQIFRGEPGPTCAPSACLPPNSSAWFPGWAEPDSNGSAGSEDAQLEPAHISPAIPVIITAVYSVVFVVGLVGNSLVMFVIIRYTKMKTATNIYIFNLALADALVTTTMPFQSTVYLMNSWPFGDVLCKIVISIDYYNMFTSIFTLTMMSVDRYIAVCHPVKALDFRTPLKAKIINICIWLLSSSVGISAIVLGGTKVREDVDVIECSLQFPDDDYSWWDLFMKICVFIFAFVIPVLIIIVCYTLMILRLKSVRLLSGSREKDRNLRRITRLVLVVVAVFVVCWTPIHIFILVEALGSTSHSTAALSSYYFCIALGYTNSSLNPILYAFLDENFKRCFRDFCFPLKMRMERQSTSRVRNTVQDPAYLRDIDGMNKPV

H1 = H1 (Homo sapiens, UniProt P35367); assay: Affinity profile panel: H1; conditions: inhibition of binding
Alpha2C = Alpha2C (Homo sapiens, UniProt P18825); assay: Affinity profile panel: Alpha2C; conditions: inhibition of binding
Alpha2C, sequence (P18825 whole entry): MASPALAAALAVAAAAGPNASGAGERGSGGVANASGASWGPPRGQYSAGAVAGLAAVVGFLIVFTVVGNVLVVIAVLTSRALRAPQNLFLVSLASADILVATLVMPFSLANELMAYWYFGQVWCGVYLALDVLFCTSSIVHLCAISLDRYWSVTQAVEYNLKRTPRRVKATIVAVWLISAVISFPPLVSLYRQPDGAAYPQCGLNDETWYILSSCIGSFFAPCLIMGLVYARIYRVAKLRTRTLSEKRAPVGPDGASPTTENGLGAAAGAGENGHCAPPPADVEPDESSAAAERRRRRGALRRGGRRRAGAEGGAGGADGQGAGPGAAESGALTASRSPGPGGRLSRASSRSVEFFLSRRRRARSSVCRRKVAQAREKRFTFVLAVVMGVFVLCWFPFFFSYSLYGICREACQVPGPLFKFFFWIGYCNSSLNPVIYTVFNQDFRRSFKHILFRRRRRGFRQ

5-HT2C = 5-HT2C (Homo sapiens, UniProt P28335); assay: Affinity profile panel: 5-HT2C; conditions: inhibition of binding
Excerpt: (§1) Antipsychotic drugs (depending on the specific drug) typically interact with a range of serotonergic, adrenergic, histaminergic, and muscarinic receptors.

D4 [2] = molecular target: T2, D4; assay: D4 binding assay (FIG. 2B)
PBR = PBR (Homo sapiens, UniProt P30536); assay: Affinity profile panel: PBR; conditions: inhibition of binding
Sigma 2 = Sigma 2 (Homo sapiens, UniProt Q5BJF2); assay: Affinity profile panel: Sigma 2; conditions: inhibition of binding
Sigma 2, sequence (Q5BJF2 whole entry): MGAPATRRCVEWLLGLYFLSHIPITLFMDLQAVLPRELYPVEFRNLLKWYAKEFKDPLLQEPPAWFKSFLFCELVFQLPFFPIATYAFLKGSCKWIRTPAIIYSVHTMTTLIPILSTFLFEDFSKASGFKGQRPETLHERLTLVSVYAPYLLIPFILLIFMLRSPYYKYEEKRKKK

D1 = D1 (Homo sapiens, UniProt P21728); assay: D1 binding assay (FIG. 2B)
D1, sequence (P21728 whole entry): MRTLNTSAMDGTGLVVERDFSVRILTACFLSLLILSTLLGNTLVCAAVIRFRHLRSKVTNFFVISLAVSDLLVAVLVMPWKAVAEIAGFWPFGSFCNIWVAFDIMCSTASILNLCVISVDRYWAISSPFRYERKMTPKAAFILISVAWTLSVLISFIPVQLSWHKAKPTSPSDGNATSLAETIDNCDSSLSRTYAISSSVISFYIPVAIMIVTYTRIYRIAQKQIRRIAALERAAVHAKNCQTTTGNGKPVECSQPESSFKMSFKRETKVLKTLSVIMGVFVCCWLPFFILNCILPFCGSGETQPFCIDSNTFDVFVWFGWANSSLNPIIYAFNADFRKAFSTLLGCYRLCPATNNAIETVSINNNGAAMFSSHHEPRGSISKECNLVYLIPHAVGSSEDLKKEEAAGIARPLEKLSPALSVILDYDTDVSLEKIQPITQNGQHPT

NET = NET (Homo sapiens, UniProt P23975); assay: Affinity profile panel: NET; conditions: inhibition of binding
Excerpt: as §1

5-HT6 = 5-HT6 (Homo sapiens, UniProt P50406); assay: Affinity profile panel: 5-HT6; conditions: inhibition of binding
D5 = D5 (Homo sapiens, UniProt P21918); assay: Affinity profile panel: D5; conditions: inhibition of binding
Beta2 = Beta2 (Homo sapiens, UniProt P07550); assay: Affinity profile panel: Beta2; conditions: inhibition of binding
M4 = M4 (Homo sapiens, UniProt P08173); assay: Affinity profile panel: M4; conditions: inhibition of binding
M5 = M5 (Homo sapiens, UniProt P08912); assay: Affinity profile panel: M5; conditions: inhibition of binding
M3 = M3 (Homo sapiens, UniProt P20309); assay: Affinity profile panel: M3; conditions: inhibition of binding
M3, sequence (P20309 whole entry): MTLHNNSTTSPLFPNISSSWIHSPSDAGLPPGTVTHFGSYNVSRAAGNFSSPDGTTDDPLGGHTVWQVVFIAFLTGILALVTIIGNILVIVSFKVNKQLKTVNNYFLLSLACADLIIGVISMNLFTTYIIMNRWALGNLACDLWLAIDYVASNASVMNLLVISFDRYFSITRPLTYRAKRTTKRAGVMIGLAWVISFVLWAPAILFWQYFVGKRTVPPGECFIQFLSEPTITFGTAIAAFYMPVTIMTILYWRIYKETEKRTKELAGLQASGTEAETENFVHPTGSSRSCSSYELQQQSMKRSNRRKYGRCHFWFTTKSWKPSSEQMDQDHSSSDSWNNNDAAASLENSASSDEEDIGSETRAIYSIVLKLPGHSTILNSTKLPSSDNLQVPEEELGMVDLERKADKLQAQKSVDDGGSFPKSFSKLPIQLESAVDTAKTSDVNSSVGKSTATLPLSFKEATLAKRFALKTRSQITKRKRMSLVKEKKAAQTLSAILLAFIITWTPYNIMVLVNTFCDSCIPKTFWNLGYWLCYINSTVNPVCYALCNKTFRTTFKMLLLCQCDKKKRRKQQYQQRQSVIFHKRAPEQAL

5-HT1D = 5-HT1D (Homo sapiens, UniProt P28221); assay: Affinity profile panel: 5-HT1D; conditions: inhibition of binding
5-HT1D, sequence (P28221 whole entry, species assumed): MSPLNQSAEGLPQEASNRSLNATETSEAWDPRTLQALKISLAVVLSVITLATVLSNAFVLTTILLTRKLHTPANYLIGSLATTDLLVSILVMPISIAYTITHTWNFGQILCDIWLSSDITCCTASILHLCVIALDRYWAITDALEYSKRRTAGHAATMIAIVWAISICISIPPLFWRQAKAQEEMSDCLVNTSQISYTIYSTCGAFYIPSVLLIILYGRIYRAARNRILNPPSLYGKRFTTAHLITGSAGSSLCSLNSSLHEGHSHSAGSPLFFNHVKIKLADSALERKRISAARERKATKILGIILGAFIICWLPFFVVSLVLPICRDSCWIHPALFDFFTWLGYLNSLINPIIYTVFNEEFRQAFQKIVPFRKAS

M2 = M2 (Homo sapiens, UniProt P08172); assay: Affinity profile panel: M2; conditions: inhibition of binding
D3 receptor = molecular target: T3, D3 receptor (Rattus norvegicus, UniProt P19020); assay: Pramipexole-induced yawning; format: in vivo; conditions: rats, 3.2 and 10 mg/kg
T3 construct: from tissue; host or cells: live rats (whole animal)
Excerpt: Pramipexole, an agonist of the D3 receptor, produces yawning when administered subcutaneously. This response is known to be mediated by the D3 receptor and not the D2 receptor (Collins, Id.).
The sumanirole-induced hypothermia and pramipexole-induced yawning experiments show ML321 can act selectively to block the D2 receptor without blocking the D3 receptor when administered to living animals. Thus, the D2 selectivity identified using cellular assays can also be seen in living animals.

5-HT5A = 5-HT5A (Homo sapiens, UniProt P47898); assay: Affinity profile panel: 5-HT5A; conditions: inhibition of binding
5-HT5A, sequence (P47898 whole entry, species assumed): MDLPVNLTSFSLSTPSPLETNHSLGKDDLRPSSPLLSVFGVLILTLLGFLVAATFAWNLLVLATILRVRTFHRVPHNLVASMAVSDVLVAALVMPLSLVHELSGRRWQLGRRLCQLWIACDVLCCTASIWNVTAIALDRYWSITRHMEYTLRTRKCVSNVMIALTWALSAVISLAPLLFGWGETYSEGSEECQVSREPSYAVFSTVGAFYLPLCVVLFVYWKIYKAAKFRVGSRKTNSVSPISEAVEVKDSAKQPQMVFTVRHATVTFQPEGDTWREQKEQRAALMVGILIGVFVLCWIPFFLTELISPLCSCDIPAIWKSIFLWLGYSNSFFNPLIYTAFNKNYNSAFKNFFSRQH

Beta3 = Beta3 (Homo sapiens, UniProt P13945); assay: Affinity profile panel: Beta3; conditions: inhibition of binding
Beta3, sequence (P13945 whole entry): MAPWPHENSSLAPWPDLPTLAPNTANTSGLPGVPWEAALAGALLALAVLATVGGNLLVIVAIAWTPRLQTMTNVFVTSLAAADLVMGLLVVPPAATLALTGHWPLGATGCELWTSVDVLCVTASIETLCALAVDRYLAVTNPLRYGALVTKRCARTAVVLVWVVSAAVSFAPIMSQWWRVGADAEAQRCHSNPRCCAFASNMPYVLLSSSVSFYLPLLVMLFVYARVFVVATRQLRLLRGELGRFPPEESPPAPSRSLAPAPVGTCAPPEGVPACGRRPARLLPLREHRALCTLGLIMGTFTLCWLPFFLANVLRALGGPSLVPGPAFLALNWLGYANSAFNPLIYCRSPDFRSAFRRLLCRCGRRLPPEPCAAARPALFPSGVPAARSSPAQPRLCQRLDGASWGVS

H3 = H3 (Homo sapiens, UniProt Q9Y5N1); assay: Affinity profile panel: H3; conditions: inhibition of binding
H3, sequence (Q9Y5N1 whole entry): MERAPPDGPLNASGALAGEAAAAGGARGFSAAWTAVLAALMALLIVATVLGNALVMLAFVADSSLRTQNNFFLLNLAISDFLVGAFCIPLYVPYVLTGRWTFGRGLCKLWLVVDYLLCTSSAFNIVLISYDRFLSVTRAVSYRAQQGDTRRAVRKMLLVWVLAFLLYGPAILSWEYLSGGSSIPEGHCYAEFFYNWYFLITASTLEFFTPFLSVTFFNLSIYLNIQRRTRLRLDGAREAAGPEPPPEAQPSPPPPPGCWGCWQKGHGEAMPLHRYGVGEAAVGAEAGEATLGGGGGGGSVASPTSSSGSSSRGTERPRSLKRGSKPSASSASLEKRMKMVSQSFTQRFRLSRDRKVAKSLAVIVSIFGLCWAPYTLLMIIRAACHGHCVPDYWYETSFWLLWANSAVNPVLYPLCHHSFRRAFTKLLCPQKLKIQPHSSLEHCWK

CN1C(=O)c2ccccc2[S@+]([O-])c2ccc(C(=O)NCCc3cccs3)cc21 [Compound 55, 10-Methyl-11-oxo-N-(2-(thiophen-2-yl)ethyl)-10,11-dihydrodibenzo[b,f][1,4]thiazepine-8-carboxamide 5-(S)-oxide]
Inhibition (%) Beta1 (Beta1): 12.6% | AC50 (D2 DAR; dopamine D2 calcium release assay of Example 1, read-out: Ca^2+ AC50): < 1 µM | AC50 (D2 DAR; dose response curve, read-out: D2 Ca^2+ assay AC50): 0.07 µM | Inhibition (%) Alpha1A (Alpha1A): −13.4% | Inhibition (%) MOR (MOR): 5.7% | Inhibition (%) D4 (D4 [1]): 32.2% | Inhibition (%) M1 (M1): −0.6% | Inhibition (%) KOR (KOR): 18.2% | Inhibition (%) H1 (H1): 41.6% | Inhibition (%) Alpha2C (Alpha2C): 20.9% | Inhibition (%) 5-HT2C (5-HT2C): 64.5% | Ki (D4 [2]): 8.48 µM | Inhibition (%) PBR (PBR): 31% | Inhibition (%) Sigma 2 (Sigma 2): −16.5% | Ki (D1): 67.1 µM | Inhibition (%) NET (NET): 8.9% | Inhibition (%) 5-HT6 (5-HT6): −15.6% | Inhibition (%) D5 (D5): −8.5% | Inhibition (%) Beta2 (Beta2): −13.2% | Inhibition (%) M4 (M4): 2.4% | Inhibition (%) M5 (M5): −6.5% | Inhibition (%) M3 (M3): 5.2% | Inhibition (%) 5-HT1D (5-HT1D): 13.1% | Inhibition (%) M2 (M2): −1.7% | Effect on pramipexole-induced yawning (D3 receptor): no effect on pramipexole-induced yawning | Inhibition (%) 5-HT5A (5-HT5A): 9.5% | Inhibition (%) Beta3 (Beta3): 6.6% | Inhibition (%) H3 (H3): −23.6%
